From article PMC7361110 (Antiviral Research, 2020)
Read-outs that look alike come from different tables or passages of the source.

Test system: SARS-CoV-2
Assay type: cell-based, SARS-CoV-2 (BetaCoV/France/IDF0571/2020 strain)
Conditions: for antiviral activity against SARS-CoV-2 (in words): single drug

CCOC(=O)c1c(CSc2ccccc2)n(C)c2cc(Br)c(O)c(CN(C)C)c12 [Arbidol (umifenovir)]
IC50: 3.54 µM

COc1ccc2cc3[n+](cc2c1OC)CCc1cc2c(cc1-3)OCO2 [Berberine]
IC50: 10.6 µM | antiviral activity against SARS-CoV-2 (in words): dose-dependent antiviral responses

COc1ccc([C@@H]2Sc3ccccc3N(CCN(C)C)C(=O)[C@@H]2OC(C)=O)cc1 [Diltiazem]
antiviral activity against SARS-CoV-2 (in words): neither diltiazem nor ribavirin or favipiravir showed antiviral activity

NC(=O)c1nc(F)c[nH]c1=O [Favipiravir, 6-fluoro-3-hydroxy-2-pyrazinecarboxamine]
antiviral activity against SARS-CoV-2 (in words): neither diltiazem nor ribavirin or favipiravir showed antiviral activity

Cc1cccc(C)c1OCC(=O)N[C@@H](Cc1ccccc1)[C@@H](O)C[C@H](Cc1ccccc1)NC(=O)[C@H](C(C)C)N1CCCNC1=O [Lopinavir]
IC50: 5.25 µM

CCC(CC)COC(=O)[C@H](C)N[P@](=O)(OC[C@H]1O[C@@](C#N)(c2ccc3c(N)ncnn23)[C@H](O)[C@@H]1O)Oc1ccccc1 [Remdesivir]
IC50: 0.987 µM | reduction of remdesivir IC50 (in presence of 12.5 μM berberine versus remdesivir alone): > 2 fold | reduction of remdesivir IC50 (in presence of diltiazem (11.5 μM) versus remdesivir alone): up to 8.5 fold

NC(=O)c1ncn([C@@H]2O[C@H](CO)[C@@H](O)[C@H]2O)n1 [Ribavirin, 1-β-D-ribofuranosyl-1,2,4-triazole-3-carboxamide]
antiviral activity against SARS-CoV-2 (in words): neither diltiazem nor ribavirin or favipiravir showed antiviral activity
